Experimental data reported in ChEMBL document CHEMBL3046198, “Insecticidal and antifungal activities of aminorhodanine derivatives” (1998).
≈ marks a conversion by molar mass, not a printed value.

Legend:
Type in all cases: functional
[1] = tested on: Musca domestica; experiment: Insecticidal activity against Musca domestica (house fly) assessed as mortality at 0.015 ug/insect after 24 hr
[2] = tested on: Culex pipiens pallens; experiment: Insecticidal activity against Culex pipiens pallens (mosquito) assessed as mortality at 0.002 ug/insect after 24 hr
[3] = tested on: Culex pipiens pallens; experiment: Insecticidal activity against Culex pipiens pallens (mosquito) assessed as mortality at 0.0005 ug/insect after 24 hr
[4] = tested on: Musca domestica; experiment: Insecticidal activity against Musca domestica (house fly) assessed as mortality at 0.125 ug/insect after 24 hr
[5] = tested on: Musca domestica; experiment: Insecticidal activity against Musca domestica (house fly) assessed as mortality at 0.031 ug/insect after 24 hr
[6] = tested on: Musca domestica; experiment: Insecticidal activity against Musca domestica (house fly) assessed as mortality at 0.250 ug/insect after 24 hr
[7] = tested on: Culex pipiens pallens; experiment: Insecticidal activity against Culex pipiens pallens (mosquito) assessed as mortality at 0.00025 ug/insect after 24 hr
[8] = tested on: Culex pipiens pallens; experiment: Insecticidal activity against Culex pipiens pallens (mosquito) assessed as mortality at 0.001 ug/insect after 24 hr
[9] = tested on: Musca domestica; experiment: Insecticidal activity against Musca domestica (house fly) assessed as mortality at 0.062 ug/insect after 24 hr
[10] = tested on: Culex pipiens pallens; experiment: Insecticidal activity against Culex pipiens pallens (mosquito) assessed as mortality at 0.008 ug/insect after 24 hr
[11] = tested on: Culex pipiens pallens; experiment: Insecticidal activity against Culex pipiens pallens (mosquito) assessed as mortality at 0.004 ug/insect after 24 hr
[12] = tested on: Culex pipiens pallens; experiment: Insecticidal activity against Culex pipiens pallens (mosquito) assessed as mortality at 0.025 ug/insect after 24 hr
[13] = tested on: Musca domestica; experiment: Insecticidal activity against Musca domestica (house fly) assessed as mortality at 4 ug/insect after 24 hr
[14] = tested on: Aspergillus niger; experiment: Antifungal activity against Aspergillus niger ATCC 16404 after 7 days by agar dilution method; conditions: ATCC 16404, 168 h
[15] = tested on: Musca domestica; experiment: Insecticidal activity against Musca domestica (house fly) assessed as mortality at 2 ug/insect after 24 hr
[16] = tested on: Culex pipiens pallens; experiment: Insecticidal activity against Culex pipiens pallens (mosquito) assessed as mortality at 0.10 ug/insect after 24 hr
[17] = tested on: Musca domestica; experiment: Insecticidal activity against Musca domestica (house fly) assessed as mortality at 1 ug/insect after 24 hr
[18] = tested on: Fusarium oxysporum; experiment: Antifungal activity against Fusarium oxysporum OPS 118 after 7 days by agar dilution method; conditions: OPS 118, 168 h
[19] = tested on: Musca domestica; experiment: Insecticidal activity against Musca domestica (house fly) assessed as mortality at 0.10 ug/insect after 24 hr
[20] = tested on: Musca domestica; experiment: Insecticidal activity against Musca domestica (house fly) assessed as mortality at 0.5 ug/insect after 24 hr
[21] = tested on: Culex pipiens pallens; experiment: Insecticidal activity against Culex pipiens pallens (mosquito) assessed as mortality at 0.05 ug/insect after 24 hr
[22] = tested on: Trichophyton mentagrophytes; experiment: Antifungal activity against Trichophyton mentagrophytes IFO 32412 after 7 days by agar dilution method; conditions: IFO 32412, 168 h
[23] = tested on: Wickerhamomyces anomalus; experiment: Antifungal activity against Wickerhamomyces anomalus OPS 308 after 7 days by agar dilution method; conditions: Hansenula anomala, OPS 308, 168 h
[24] = tested on: Musca domestica; experiment: Insecticidal activity against Musca domestica (house fly) assessed as mortality at 0.05 ug/insect after 24 hr
[25] = tested on: Musca domestica; experiment: Insecticidal activity against Musca domestica (house fly) assessed as mortality at 0.25 ug/insect after 24 hr
[26] = tested on: Penicillium expansum; experiment: Antifungal activity against Penicillium expansum IFO 8800 after 7 days by agar dilution method; conditions: IFO 8800, 168 h
[27] = tested on: Culex pipiens pallens; experiment: Insecticidal activity against Culex pipiens pallens (mosquito) assessed as mortality at 0.5 ug/insect after 24 hr
[28] = tested on: Culex pipiens pallens; experiment: Insecticidal activity against Culex pipiens pallens (mosquito) assessed as mortality at 2 ug/insect after 24 hr
[29] = tested on: Culex pipiens pallens; experiment: Insecticidal activity against Culex pipiens pallens (mosquito) assessed as mortality at 4 ug/insect after 24 hr
[30] = tested on: Culex pipiens pallens; experiment: Insecticidal activity against Culex pipiens pallens (mosquito) assessed as mortality at 0.25 ug/insect after 24 hr
[31] = tested on: Culex pipiens pallens; experiment: Insecticidal activity against Culex pipiens pallens (mosquito) assessed as mortality at 5 ug/insect after 24 hr
[32] = tested on: Culex pipiens pallens; experiment: Insecticidal activity against Culex pipiens pallens (mosquito) assessed as mortality at 1 ug/insect after 24 hr
[33] = tested on: Musca domestica; experiment: Insecticidal activity against Musca domestica (house fly) assessed as mortality at 5 ug/insect after 24 hr
[34] = tested on: Candida albicans; experiment: Antifungal activity against Candida albicans ATCC 10231 after 7 days by agar dilution method; conditions: ATCC 10231, 168 h

Row | Compound | MIC [14] | MIC [18] | MIC [22] | MIC [23] | MIC [26] | Activity [31] | Activity [33] | MIC [34] | also measured
1 | COP(=S)(OC)Oc1ccc([N+](=O)[O-])c(C)c1 [FENITROTHION] | – | – | – | – | – | – | – | – | Activity [1]: 0%; Activity [2]: 50%; Activity [3]: 3.3%; Activity [4]: 93.3%; Activity [5]: 3.3%; Activity [6]: 100%; Activity [7]: 0%; Activity [8]: 16.7%; Activity [9]: 46.7%; Activity [10]: 100%; Activity [11]: 86.7%
2 | NN1C(=O)CSC1=S [AMINORHODANINE] | 6.25 µg/mL (≈ 0.0422 mM) | 400 µg/mL (≈ 2.7 mM) | 12.5 µg/mL (≈ 0.0843 mM) | 25 µg/mL (≈ 0.169 mM) | 100 µg/mL (≈ 0.675 mM) | 100% | 100% | 12.5 µg/mL (≈ 0.0843 mM) | Activity [12]: 3.3%; Activity [13]: 86.7%; Activity [15]: 63.3%; Activity [16]: 33.3%; Activity [17]: 60%; Activity [19]: 10%; Activity [20]: 36.7%; Activity [21]: 16.7%; Activity [24]: 0%; Activity [25]: 17.9%; Activity [27]: 60%; Activity [28]: 100%; Activity [29]: 100%; Activity [30]: 53.3%; Activity [32]: 86.7%
3 | CC(=O)NN1C(=O)CSC1=S [N-ACETYLAMINORHODANINE] | > 1000 µg/mL | > 1000 µg/mL | > 1000 µg/mL | > 1000 µg/mL | > 1000 µg/mL | 0% | 0% | > 1000 µg/mL | –
4 | O=C1CSC(=S)N1 [RHODANINE] | 800 µg/mL (≈ 6.01 mM) | 800 µg/mL (≈ 6.01 mM) | 200 µg/mL (≈ 1.5 mM) | 400 µg/mL (≈ 3 mM) | > 1000 µg/mL | 0% | 0% | 800 µg/mL (≈ 6.01 mM) | –
5 | O=C(NN1C(=O)CSC1=S)c1ccccc1 [N-BENZOYLAMINORHODANINE] | > 1000 µg/mL | > 1000 µg/mL | > 1000 µg/mL | > 1000 µg/mL | > 1000 µg/mL | 0% | 0% | > 1000 µg/mL | –
